# Test results: patent US7550467B2 (Schering Corporation, priority 2004, dated 2009)
# Target: T1, MCH receptor (Homo sapiens, UniProt Q99705)
# T1 construct: expressed in transfected cells; host or cells: CHO cells
# Test: MCH Receptor Binding Assay ([125I]-MCH, SPA beads, membranes from CHO cells expressing the MCH receptor)
# Protocol: MCH Receptor Binding Assay:
# Membranes from CHO cells expressing the MCH receptor were prepared by lysing cells with 5 mM HEPES for 15 minutes at 4° C. Cell lysates were centrifuged ([…], 15 minutes) and the pellet was resuspended in 5 mM HEPES. For each 96-well plate (Microlite, Dynex Technologies), 1 mg of cell membranes were incubated with 10 mg of wheat germ agglutinin SPA beads (Amersham) for 5 minutes at 4° C. in a volume of 10 ml of binding buffer (25 mM HEPES, 10 mM MGCl2, 10 mM NaCl, 5 mM MnCl2, 0.1% BSA). The membrane/bead mixture was centrifuged (1500×g, 3.5 min), the supernatant was aspirated, and the pellet was resuspended in 10 ml binding buffer. The centrifugation, aspiration and resuspension were then repeated. The membrane/bead mixture (100 μl) was then added to 96-well plates containing 50 μl of 500 pM [^125I]-MCH (NEN) and […] of the appropriate concentration of compound (4X the desired final concentration). Nonspecific binding was determined by including 1 μM MCH in the binding reaction. The binding reaction was incubated at room temperature for 2 hours. Plates were then analyzed in a TOPCOUNT microplate scintillation counter (Packard). Data was analyzed and Ki values were determined using GraphPad Prism.
# T1 sequence (Q99705 whole entry): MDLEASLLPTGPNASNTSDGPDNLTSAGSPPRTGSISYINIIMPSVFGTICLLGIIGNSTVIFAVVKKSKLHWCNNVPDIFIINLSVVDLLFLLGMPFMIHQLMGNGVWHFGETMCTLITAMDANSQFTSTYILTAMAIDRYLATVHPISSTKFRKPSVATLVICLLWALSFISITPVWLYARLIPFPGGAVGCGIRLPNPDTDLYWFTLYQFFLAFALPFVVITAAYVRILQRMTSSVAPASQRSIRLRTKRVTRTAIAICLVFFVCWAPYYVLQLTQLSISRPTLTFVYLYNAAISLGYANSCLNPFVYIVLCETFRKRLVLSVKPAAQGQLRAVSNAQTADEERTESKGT
Ki (Ki rating (class)) [µM],Ki ([125I]-MCH) [µM],SMILES
< 1,0.065,"CN1CCN(CCCN(C(=O)Nc2cc(Cl)nc(Cl)c2)C2CCc3cc(C#N)ccc3C2)CC1 (centres unmarked) [Compound VI, 3-(2,6-dichloro-pyridin-4-yl)-1-(6-cyano-1,2,3,4-tetrahydro-naphthalen-2-yl)-1-[3-(4-methyl-piperazin-1-yl)-propyl]-urea]"
< 1,,"CNS(=O)(=O)c1ccc2c(c1)CC(N(CCCN1CCN(C)CC1)C(=O)Nc1cc(Cl)nc(Cl)c1)CC2 (centres unmarked) [Compound XXII, 7-{3-(2,6-dichloro-pyridin-4-yl)-1-[3-(4-methyl-piperazin-1-yl)-propyl]-ureido}-5,6,7,8-tetrahydro-naphthalene-2-sulfonic acid methylamide]"
1 to 2,,C[C@@H]1CN(CCCN(C(=O)Nc2cc(Cl)nc(Cl)c2)C2COc3ccc(Br)cc3C2)[C@@H](C)CN1C(=O)OC(C)(C)C (some centres unmarked) [XXIII]
> 2,,CN1CCN(CCCN(C(=O)Nc2cc(Cl)nc(Cl)c2)C2CCc3ccc(S(=O)(=O)N(C)C)cc3C2)CC1 (centres unmarked) [Compound XXXII]
> 2,,"CN1CCN(CCCN(C(=O)Nc2ccc(F)c(C(F)(F)F)c2)C2CCc3ccc(S(=O)(=O)N(C)C)cc3C2)CC1 (centres unmarked) [Compound XXXI, 7-{3-(4-fluoro-3-trifluoromethyl-phenyl)-1-[3-(4-methyl-piperazin-1-yl)-propyl]-ureido}-5,6,7,8-tetrahydro-naphthalene-2-sulfonic acid dimethylamide]"
< 1,0.178,"CN1CCN(CCCN(C(=O)Nc2ccc(F)c(Cl)c2)C2CCc3cc(Br)ccc3C2)CC1 (centres unmarked) [Compound X, 1-(6-bromo-1,2,3,4-tetrahydro-naphthalen-2-yl)-3-(3-chloro-4-fluoro-phenyl)-1-[3-(4-methyl-piperazin-1-yl)-propyl]-urea]"
< 1,0.061,"CC(C)C(=O)Nc1ccc2c(c1)CC(N(CCCN1CCN(C)CC1)C(=O)Nc1ccc(F)c(Cl)c1)CC2 (centres unmarked) [Compound IV, N-(7-{3-(3-chloro-4-fluoro-phenyl)-1-[3-(4-methyl-piperazin-1-yl)-propyl]-ureido}-5,6,7,8-tetrahydro-naphthalen-2-yl)-isobuty ramide]"
< 1,,"CN1CCN(CCCN(C(=O)Nc2ccc(F)c(Cl)c2)C2Cc3ccccc3C2)CC1 [Compound XIX, 3-(3-chloro-4-fluoro-phenyl)-1-indan-2-yl-1-[3-(4-methyl-piperazin-1-yl)-propyl]-urea]"
1 to 2,,CN1CCN(CCCN(C(=O)Nc2ccc(F)c(Cl)c2)C2CCc3ccc(S(C)(=O)=O)cc3C2)CC1 (centres unmarked)
1 to 2,,"C[C@@H]1CN(C(=O)OC(C)(C)C)[C@@H](C)CN1CCCN(C(=O)Nc1ccc(F)c(Cl)c1)C1COc2ccc(Br)cc2C1 (stereo partly drawn) [Compound XXV, (2S,5R)-4-{3-[1-(6-bromo-chroman-3-yl)-3-(3-chloro-4-fluoro-phenyl)-ureido]-propyl}-2,5-dimethyl-piperazine-1-carboxylic acid tert-butyl ester]"
< 1,0.063,C[C@@H]1CN[C@@H](C)CN1CCCN(C(=O)Nc1cc(Cl)nc(Cl)c1)C1COc2ccc(Br)cc2C1 (some centres unmarked) [Compound V]
< 1,,"CN1CCN(CCCN(C(=O)Nc2ccc(F)c(Cl)c2)C2CCc3cc(C#N)ccc3C2)CC1 (centres unmarked) [Compound XVI, 3-(3-chloro-4-fluoro-phenyl)-1-(6-cyano-1,2,3,4-tetrahydro-naphthalen-2-yl)-1-[3-(4-methyl-piperazin-1-yl)-propyl]-urea]"
< 1,0.092,"COc1ccc2c(c1)CC(N(CCCN1CCN(C)CC1)C(=O)Nc1ccc(F)c(Cl)c1)CC2 (centres unmarked) [Compound VII, 3-(3-chloro-4-fluoro-phenyl)-1-(7-methoxy-1,2,3,4-tetrahydro-naphthalen-2-yl)-1-[3-(4-methyl-piperazin-1-yl)-propyl]-urea]"
< 1,0.157,"CCNC(=O)Nc1ccc2c(c1)CC(N(CCCN1CCN(C)CC1)C(=O)Nc1ccc(F)c(Cl)c1)CC2 (centres unmarked) [Compound IX, 1-(7-{3-(3-chloro-4-fluoro-phenyl)-1-[3-(4-methyl-piperazin-1-yl)-propyl]-ureido}-5,6,7,8-tetrahydro-naphthalen-2-yl)-3-ethyl-urea]"
< 1,0.096,"CN1CCN(CCCN(C(=O)Nc2ccc(F)c(Cl)c2)C2CCc3ccc(NS(C)(=O)=O)cc3C2)CC1 (centres unmarked) [Compound VIII, N-(7-{3-(3-chloro-4-fluoro-phenyl)-1-[3-(4-methyl-piperazin-1-yl)-propyl]-ureido}-5,6,7,8-tetrahydro-naphthalen-2-yl)-methanesulfonamide]"
1 to 2,,C[C@@H]1CN(CCCN(C(=O)Nc2ccc(F)c(Cl)c2)C2COc3ccc(Br)cc3C2)[C@@H](C)CN1C(=O)OC(C)(C)C (some centres unmarked) [Compound XXVI]

Ki (Ki rating (class)) [µM],Ki ([125I]-MCH) [µM],SMILES
< 1,,"CN1CCN(CCCN(C(=O)Nc2ccc(F)c(Cl)c2)C2CCc3ccccc3C2)CC1 (centres unmarked) [Compound XVII, 3-(3-chloro-4-fluoro-phenyl)-1-[3-(4-methyl-piperazin-1-yl)-propyl]-1-(1,2,3,4-tetrahydro-naphthalen-2-yl)-urea]"
< 1,,C[C@@H]1CN(C(=O)OC(C)(C)C)[C@@H](C)CN1CCCN(C(=O)Nc1cc(Cl)nc(Cl)c1)C1COc2ccc(Br)cc2C1 (some centres unmarked) [Compound XV]
< 1,,C[C@@H]1CN(CCCN(C(=O)Nc2ccc(F)c(Cl)c2)C2COc3ccc(Br)cc3C2)[C@@H](C)CN1 (some centres unmarked) [Compound XXI]
> 2,,"CN1CCN(CCCN(C(=O)Nc2ccc(F)c(Cl)c2)C2CCc3ccc(S(=O)(=O)N(C)C)cc3C2)CC1 (centres unmarked) [Compound XXX, 7-{3-(3-chloro-4-fluoro-phenyl)-1-[3-(4-methyl-piperazin-1-yl).-propyl]-ureido}-5,6,7,8-tetrahydro-naphthalene-2-sulfonic acid dimethylamide]"
< 1,0.006,"CC(=O)Nc1ccc2c(c1)CC(N(CCCN1CCN(C)CC1)C(=O)Nc1ccc(F)c(Cl)c1)CC2 (centres unmarked) [Compound I, N-(7-{3-(3-chloro-4-fluoro-phenyl)-1-[3-(4methyl-piperazin-1-yl)-propyl]-ureido}-5,6,7,8-tetrahydro-naphthalen-2yl)-acetamide]"
< 1,,"CN1CCN(CCCN(C(=O)Nc2cc(Cl)nc(Cl)c2)C2CCc3ccc(S(C)(=O)=O)cc3C2)CC1 (centres unmarked) [Compound XIII, 3-(2,6-dichloro-pyridin-4-yl)-1-(7-methanesulfonyl-1,2,3,4-tetrahydro-naphthalen-2-yl)-1-[3-(4-methyl-piperazin-1-yl)-propyl]-urea]"
> 2,,"COc1cc2c(cc1OC)CC(N(CCCN1CCN(C)CC1)C(=O)Nc1ccc(F)c(Cl)c1)CC2 (centres unmarked) [Compound XXVIII, 3-(3-chloro-4-fluoro-phenyl)-1-(6,7-dimethoxy-1,2,3,4-tetrahydro-naphthalen-2-yl)-1-[3-(4-methyl-piperazin-1-yl)-propyl]-urea]"
< 1,,"C[C@@H]1CN[C@@H](C)CN1CCCN(C(=O)Nc1ccc(F)c(Cl)c1)C1COc2ccc(Br)cc2C1 (stereo partly drawn) [Compound XVIII, (2R,5S)-1-(6-bromo-chroman-3-yl)-3-(3-chloro-4-fluoro-phenyl)-1-[3-(2,5-dimethyi-piperazin-1-yl)-propyl]-urea]"
< 1,,C[C@@H]1CN(CCCN(C(=O)Nc2cc(Cl)nc(Cl)c2)C2COc3ccc(Br)cc3C2)[C@@H](C)CN1 (some centres unmarked) [Compound XI]
< 1,,CN1CCN(CCCN(C(=O)Nc2ccc(F)c(Cl)c2)C2CCc3ccc(N)cc3C2)CC1 (centres unmarked)
< 1,,"COc1ccc2c(c1)CCC(N(CCCN1CCN(C)CC1)C(=O)Nc1ccc(F)c(Cl)c1)C2 (centres unmarked) [Compound XII, 3-(3-chloro-4-fluoro-phenyl)-1-(6-methoxy-1,2,3,4-tetrahydro-naphthalen-2-yl)-1-[3-(4-methyl-piperazin-1-yl)-propyl]-urea]"
1 to 2,,"CNS(=O)(=O)c1ccc2c(c1)CC(N(CCCN1CCN(C)CC1)C(=O)Nc1ccc(F)c(C(F)(F)F)c1)CC2 (centres unmarked) [Compound XXVII, 7-{3-(4-fluoro-3-trifluoromethyl-phenyl)-1-[3-(4-methyl-piperazin-1-yl)-propyl]-ureido}-5,6,7,8-tetrahydro-naphthalene-2-sulfonic acid methylamide]"
< 1,0.011,"CN1CCN(CCCN(C(=O)Nc2ccc(F)c(Cl)c2)C2CCc3ccc([N+](=O)[O-])cc3C2)CC1 (centres unmarked) [Compound II, 3-(3-chloro-4-fluoro-phenyl)-1-[3-(4-methyl-piperazin-1-yl)-propyl]-1-(7-nitro-1,2,3,4-tetrahydro-naphthalen-2-yl)-urea]"
< 1,,"COc1cc2c(cc1OC)CC(N(CCCN1CCN(C)CC1)C(=O)Nc1cc(Cl)nc(Cl)c1)CC2 (centres unmarked) [Compound XX, 3-(2,6-dichloro-pyridin-4-yl)-1-(6,7-dimethoxy-1,2,3,4-tetrahydro-naphthalen-2-yl)-1-[3-(4-methyl-piperazin-1-yl)-propyl]-urea]"
< 1,0.014,"CN1CCN(CCCN(C(=O)Nc2ccc(F)c(Cl)c2)C2CCc3ccc(C#N)cc3C2)CC1 (centres unmarked) [Compound III, 3-(3-chloro-4-fluoro-phenyl)-1-(7-cyano-1,2,3,4-tetrahydro-naphthalen-2-yl)-1-[3-(4-methyl-piperazin-1-yl)-propyl]-urea]"
